Data set [1] in a line: Clinical trial: pharmacokinetic analysis of Δ9-THC plasma levels after single inhalation via metered dose inhaler. On the procedure:
An objective of the trial was to evaluate the effects of a single inhalation of vaporized ground cannabis doses comprising 0.5 mg or 1 mg THC, as compared to placebo. […] The patients were licensed to use medical cannabis and were guided to refrain from using cannabis at least 12 hours prior to the trial commencement. The patients were guided how to use the inhaler device and signed a written consent.
The trial included three sessions, with an interval of at least 48 hours between sessions. In each of the sessions, a randomized single dose or placebo was delivered to the patients via inhalation. During each session, at a plurality of pre-defined time points, the patients were cognitively tested using “Cambridge Neuropsychological Test Automated Battery”; questioned for assessment of pain (using the VAS); their blood pressure and heartrate were measured; and they were questioned regarding safety parameters, such as feeling “high”, dizziness, mouth dryness. Blood samples were collected at pre-defined time points for performing a pharmacokinetic analysis of THC (being the active substance, in accordance with some embodiments).

Data set [2] deals with chronic pain. The data set can be described thus: Clinical trial: pain intensity (0-10 point VAS) after single inhalation via metered dose inhaler. Type of data set: in vivo, human (hospitalized adult patients). The source says: FIG. 5B presents effects of the three different interventions on pain intensity. About 1 VAS point decline in pain intensity was noted during the follow-up period following placebo administration.

[3] abbreviates: single inhalation of 0.5 mg Δ9-THC.
[4] abbreviates: single inhalation of 1 mg Δ9-THC.
The mark [5] stands for this setting: 0.5 mg dosage, observed at 120 minutes following inhalation.
[6] abbreviates: 1 mg dosage, observed at 60 minutes following inhalation.

With `CCCCCc1cc(O)c2c(c1)OC(C)(C)[C@@H]1CCC(C)=C[C@@H]21` [Δ9-THC, Δ9-tetrahydrocannabinol], in data set [1] (setting [3]), the “mean area under the curve of plasma concentration vs. time from 0 to infinity (AUC0→infinity)” value was 300 ± 144 ng/min/mL and the “time upon which maximum plasma concentration was reached (Tmax)” value was 3.7 ± 1.4 min. The “mean maximum plasma Δ9-THC concentration (Cmax) ±SD” value in data set [1] (single inhalation of 0.5 mg Δ9-THC, vaporized ground cannabis, 22 of 27 patients analysed) worked out at 14.3 ± 7.7 ng/mL. In addition, in data set [1] (setting [4]), the AUC0→infinity came to 769 ± 331 ng/min/mL, the “Cmax ±SD” value turned out to be 33.8 ± 25.7 ng/mL and the Tmax was found to be 4.4 ± 2.1 min. In data set [2] (setting [5]), the “maximum change in VAS pain score” value is recorded as 1.95 points and the “maximum change in VAS pain score (percent)” value turned out to be 24%. Further, the “decline in pain intensity compared to placebo” value in data set [2] (0.5 mg Δ9-THC dose, follow-up period) is listed as “greater decline in pain intensity”. Also, in data set [2] (setting [6]), the “maximum change in VAS pain score” value is 2.95 points and the “maximum change in VAS pain score (percent)” value amounted to 39.4%. Also, the “reduction in VAS compared to placebo (0 mg) and 0.5 mg” value in data set [2] (1 mg dose, 15 minutes after inhalation and onward, RM-ANOVA p=0.0015 vs placebo, p=0.0058 vs 0.5 mg) is recorded as “statistically significantly larger”.

The record behind these values is patent US20250157614A1, “SUBSTANCE DELIVERY PLANNING SYSTEM” (Syqe Medical Ltd., priority 2019, published 2025).
